Laboratory results taken from US9334267B2, “RAF inhibitor compounds” (Deciphera Pharmaceuticals, LLC, priority 2012, dated 2016).

Columns and labels:
human wild type C-Raf = molecular target: T1, human wild type C-Raf (Homo sapiens, UniProt P04049); assay: Enzymatic assay of C-Raf kinase activity (Raf/MEK1 ATPase, coupled PK/LDH, A340); assay type: biochemical; details: read-out: Enzyme IC50, nM C-Raf
T1 construct: made in house
Experimental: Test compounds are evaluated for their inhibitory activities against one or more of human wild type B-Raf, human wild type C-Raf, human B-Raf V600E, human B-Raf V600E+T529I or human B-Raf V600E+G468A. T529I is a threonine to isoleucine B-Raf gatekeeper mutation and G468A is a B-Raf secondary mutation at G1403C in exon 11. The enzymatic assays of B-Raf, C-Raf and B-Raf mutations evaluate a property of Raf and MEK1 complex, which in the presence of ATP, catalyzes an enhanced ATP hydrolysis (Rominger, et al, Arch. Biochem. Biophys. 2007, 464: 130-137; US Patent Publication No. 2006/0211073). The ADP formed is monitored by the well-known coupled PK/LDH (pyruvate kinase/lactate dehydrogenase) system in the form of NADH oxidation, which can be monitored and detected spectrophotometrically by absorbance at 340 nm (A340; for principal of the method see Schindler et al, Science, 2000, 289: 1938-1942). Raf activated MEK1 ATPase activity is a property shared by all forms of Raf proteins.
Test compounds are evaluated for their inhibitory activities against one or more of wild type B-Raf, wild type C-Raf, B-Raf V600E, B-Raf V600E+T529I and B-Raf V600E+G468A. T529I is a B-Raf gatekeeper mutation and G468A is a B-Raf secondary mutation. The enzymatic assays of B-Raf, C-Raf and B-Raf mutations evaluate a property of Raf and MEK1 complex, which in the presence of ATP, catalyzes an enhanced ATP hydrolysis (Rominger, et al, Arch. Biochem. Biophys. 2007, 464: 130-137). The ADP formed is monitored by the well-known coupled PK/LDH (pyruvate kinase/lactate dehydrogenase) system in the form of NADH oxidation, which can be monitored and detected by absorbance at 340 nm (A340; for principal of the method see Schindler et al, Science, 2000, 289: 1938-1942). Raf activated MEK1 ATPase activity is a property shared by all forms of Raf proteins. In the B-Raf wild type enzymatic assay, the reaction mixture contains 1.2 nM B-Raf, 30 nM MEK1, 1000 uM ATP, 3.5 units (per 100 ul) of PK, 5 units (per 100 ul) of LDH, 1 mM phosphoenol pyruvate (PEP), and 280 uM of NADH. In the C-Raf assay, the reaction mixture contains 0.6 nM C-Raf, 26 nM MEK1, 2000 uM ATP, and the same amount of PK, LDH, PEP and NADH as above. In the B-Raf V600E assay, the reaction mixture contains […] B-Raf V600E, 26 nM MEK1, 200 uM ATP and the same amount of PK, LDH, PEP and NADH as above. In the B-RafV600E+T529I assay, the reaction mixture contains 6.2 nM B-Raf V600E+T529I, 30 nM MEK1, 200 uM ATP and the same amount of PK, LDH, PEP and NADH as above. In the B-Raf V600E+G468A assay, the reaction mixture contains 3.5 nM B-Raf, 30 nM MEK1, 200 uM ATP and the same amount of PK, LDH, PEP and NADH as above. All assays are started by mixing the above mixture with test compound and monitoring at A340 continuously for approximately 5 hr. […] In the aforementioned assays, the enzyme constructs can be screened prior to or after cleavage of the N-terminal purification tag.

Colo205 cells = assay: Colo-205 cell proliferation assay (resazurin); assay type: cell-based; details: Homo sapiens; Colo-205 cells, V600E mutation; read-out: Cell Proliferation Inhibition IC50, nM Colo-205
Experimental: (§1) Colo205 cells (catalog #HB-8307) are obtained from the American Type Culture Collection (ATCC, Manassas, Va.). Briefly, cells are grown in RPMI 1640 supplemented with 10% characterized fetal bovine serum (Invitrogen, Carlsbad, Calif.), 1 mM sodium pyruvate, and 1% Penicillin/Streptomycin/L-Glutamine at 37 degrees Celsius, 5% CO2, and 95% humidity. Cells are allowed to expand until reaching 30-60% confluency at which point they are subcultured or harvested for assay use. A serial dilution of test compound is dispensed into a 384-well black clear bottom plate in triplicate. One thousand two-hundred fifty cells are added per well in 50 μL complete growth medium in the 384-well plate. Plates are incubated for 67 hours at 37 degrees Celsius, 5% CO2, and 95% humidity. At the end of the incubation period, 10 μL of a 440 μM solution of resazurin (Sigma, St. Louis, Mo.) in PBS is added to each well of the plate and plates are incubated for an additional 5 hours at 37 degrees Celsius, 5% CO2, and 95% humidity. Plates are read on a Synergy2 reader (Biotek, Winooski, Vt.) using an excitation of 540 nm and an emission of 600 nm. Data is analyzed using Prism software (Graphpad, San Diego, Calif.) to calculate IC50 values.
(§2) The A375, HT-29, and Colo-205 cells (ATCC) harbor a V600E mutation.

A375 cells = assay: A375 cell proliferation assay (CellTiter-Blue/resazurin); assay type: cell-based; details: Homo sapiens, A-375, V600E mutation, read-out: Cell Proliferation Inhibition IC50, nM A375
Experimental: as §1, with “A375” for “Colo205”, “#CRL-1619)” for “#HB-8307)”, “DMEM High Glucose” for “RPMI 1640”, “Calif.)” for “Calif.), 1 mM sodium pyruvate,”, “70-95%” for “30-60%”, “Six hundred twenty-five” for “One thousand two-hundred fifty”
as §2

Sk-Mel-2 cells = assay: SK-Mel-2 cell proliferation assay (resazurin); assay type: cell-based; details: Homo sapiens, N-Ras mutation B-Raf wild type, read-out: Cell Proliferation Inhibition IC50, nM SK-Mel-2

T1 sequence (P04049 whole entry): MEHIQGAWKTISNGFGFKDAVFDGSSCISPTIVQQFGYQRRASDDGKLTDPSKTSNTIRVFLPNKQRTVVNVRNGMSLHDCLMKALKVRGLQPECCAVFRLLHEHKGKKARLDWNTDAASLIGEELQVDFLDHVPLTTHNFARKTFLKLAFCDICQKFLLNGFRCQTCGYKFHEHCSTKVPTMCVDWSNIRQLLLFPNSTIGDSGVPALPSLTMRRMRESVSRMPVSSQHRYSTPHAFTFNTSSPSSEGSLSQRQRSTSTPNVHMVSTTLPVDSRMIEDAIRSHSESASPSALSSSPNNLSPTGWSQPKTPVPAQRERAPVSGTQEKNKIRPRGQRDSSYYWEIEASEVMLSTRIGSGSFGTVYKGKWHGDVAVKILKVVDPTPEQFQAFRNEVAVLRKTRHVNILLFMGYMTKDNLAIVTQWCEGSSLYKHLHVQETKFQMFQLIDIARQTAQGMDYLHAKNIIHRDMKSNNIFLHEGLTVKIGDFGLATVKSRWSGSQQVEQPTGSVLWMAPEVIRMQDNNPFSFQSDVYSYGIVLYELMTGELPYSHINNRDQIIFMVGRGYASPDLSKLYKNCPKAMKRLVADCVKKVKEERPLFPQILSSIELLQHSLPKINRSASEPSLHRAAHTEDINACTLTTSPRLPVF

SMILES | IC50 (human wild type C-Raf) | IC50 (Colo205 cells) | IC50 (A375 cells) | IC50 (Sk-Mel-2 cells)
CNc1ncc2cc(-c3cc(NC(=O)NC4CC(C)(C)C4)c(F)cc3C)c(C)nc2n1 [Example 6, 1-(3,3-Dimethylcyclobutyl)-3-(2-fluoro-4-methyl-5-(7-methyl-2-(methylamino)pyrido[2,3-d]pyrimidin-6-yl)phenyl)urea] | < 150 nM | < 100 nM | < 100 nM | < 100 nM
CNc1ncc2cc(-c3cc(NC(=O)NC4CC(C)(C)C4)c(F)cc3F)c(C)nc2n1 [Example 7, 1-(2,4-Difluoro-5-(7-methyl-2-(methylamino)pyrido[2,3-d]pyrimidin-6-yl)phenyl)-3-(3,3-dimethylcyclobutyl)urea] | < 150 nM | < 100 nM | < 100 nM | < 100 nM
CNc1ncc2cc(-c3cc(NC(=O)NCC(O)C(C)(C)C)c(F)cc3C)cnc2n1 (stereo not shown) [Example 8, 1-[2-Fluoro-4-methyl-5-(2-methylaminopyrido[2,3-d]pyrimidin-6-yl)phenyl]-3-(2-hydroxy-3,3-dimethyl-butyl)urea] | < 150 nM | < 100 nM | 100 to 1000 nM | 100 to 1000 nM
CNc1ncc2cc(-c3cc(NC(=O)NCC4CC4(C)C)c(F)cc3C)cnc2n1 (stereo not shown) [Example 9] | < 150 nM | 100 to 1000 nM | 100 to 1000 nM | 100 to 1000 nM
Cc1cc(F)c(NC(=O)NCC(O)C(C)(C)C)cc1-c1cc2cnc(N)nc2nc1C (stereo not shown) [Example 10] | < 150 nM | 100 to 1000 nM | 100 to 1000 nM | 1000 to 10000 nM
CNc1ncc2cc(-c3cc(NC(=O)NCC(O)C(C)(C)C)c(F)cc3F)c(C)nc2n1 (stereo not shown) [Example 11, 1-[2,4-Difluoro-5-(7-methyl-2-methylamino-pyrido[2,3-d]pyrimidin-6-yl)phenyl]-3-(2-hydroxy-3,3-dimethyl-butyl)urea] | < 150 nM | 100 to 1000 nM | 100 to 1000 nM | 100 to 1000 nM
CNc1ncc2cc(-c3ccc(F)c(NC(=O)NCCC(C)(C)C#N)c3)c(C)nc2n1 [Example 13, 1-(3-Cyano-3-methylbutyl)-3-(2-fluoro-5-(7-methyl-2-(methylamino)pyrido[2,3-d]pyrimidin-6-yl)phenyl)urea] | < 150 nM | 100 to 1000 nM | 1000 to 10000 nM | 100 to 1000 nM

Other lines, results leading:

IC50 (human wild type C-Raf) | IC50 (Colo205 cells) | IC50 (A375 cells) | IC50 (Sk-Mel-2 cells) | SMILES
< 150 nM | < 100 nM | < 100 nM | 100 to 1000 nM | CNc1ncc2cc(-c3cc(NC(=O)NCCC(C)(C)C)c(F)cc3F)c(C)nc2n1 [Example 1, 1-(2,4-Difluoro-5-(7-methyl-2-(methylamino)pyrido[2,3-d]pyrimidin-6-yl)phenyl)-3-(3,3-dimethylbutyl)urea]
< 150 nM | < 100 nM | < 100 nM | < 100 nM | CNc1ncc2cc(-c3ccc(F)c(NC(=O)NCCC(C)(C)C)c3)c(C)nc2n1 [Example 2, 1-(3,3-Dimethylbutyl)-3-(2-fluoro-5-(7-methyl-2-(methylamino)pyrido[2,3-d]pyrimidin-6-yl)phenyl)urea]
< 150 nM | < 100 nM | < 100 nM | 100 to 1000 nM | CNc1ncc2cc(-c3cc(NC(=O)NCCC(C)(C)C#N)c(F)cc3C)c(C)nc2n1 [Example 3, 1-(3-Cyano-3-methylbutyl)-3-(2-fluoro-4-methyl-5-(7-methyl-2-(methylamino)pyrido[2,3-d]pyrimidin-6-yl)phenyl)urea]
< 150 nM | 100 to 1000 nM | 100 to 1000 nM | 100 to 1000 nM | CNc1ncc2cc(-c3cc(NC(=O)NCCC(C)(C)F)c(F)cc3C)c(C)nc2n1 [Example 4, 1-(3-Fluoro-3-methylbutyl)-3-(2-fluoro-4-methyl-5-(7-methyl-2-(methylamino)pyrido[2,3-d]pyrimidin-6-yl)phenyl)urea]
< 150 nM | < 100 nM | < 100 nM | 100 to 1000 nM | COCCNc1ncc2cc(-c3cc(NC(=O)NCCC(C)(C)C)c(F)cc3C)c(C)nc2n1 [Example 5, 1-(3,3-Dimethylbutyl)-3-(2-fluoro-5-(2-((2-methoxyethyl)amino)-7-methylpyrido[2,3-d]pyrimidin-6-yl)-4-methylphenyl)urea]
< 150 nM | 100 to 1000 nM | 1000 to 10000 nM | 100 to 1000 nM | CNc1ncc2cc(-c3cc(NC(=O)NCCC(C)(C)C#N)c(F)cc3F)c(C)nc2n1 [Example 12, 1-(3-Cyano-3-methylbutyl)-3-(2,4-difluoro-5-(7-methyl-2-(methylamino)pyrido[2,3-d]pyrimidin-6-yl)phenyl)urea]
< 150 nM | < 100 nM | 100 to 1000 nM | 1000 to 10000 nM | CNc1ncc2cc(-c3cc(NC(=O)NCCC(C)(C)OC)c(F)cc3C)c(C)nc2n1 [Example 14, 1-(2-Fluoro-4-methyl-5-(7-methyl-2-(methylamino)pyrido[2,3-d]pyrimidin-6-yl)phenyl)-3-(3-methoxy-3-methylbutyl)urea]
< 150 nM | < 100 nM | < 100 nM | 100 to 1000 nM | CNc1ncc2cc(-c3cc(NC(=O)NCC(O)C(C)(C)C)c(F)cc3C)c(C)nc2n1 (stereo not shown) [Example 15, 1-[2-Fluoro-4-methyl-5-(7-methyl-2-methylamino-pyrido[2,3-d]pyrimidin-6-yl)phenyl]-3-(2-hydroxy-3,3-dimethyl-butyl)urea]
< 150 nM | < 100 nM | < 100 nM | 100 to 1000 nM | Cc1cc(F)c(NC(=O)NCCC(C)(C)C)cc1-c1cc2cnc(NCCO)nc2nc1C [Example 16, 1-(3,3-Dimethylbutyl)-3-[2-fluoro-5-[2-(2-hydroxyethylamino)-7-methyl-pyrido[2,3-d]pyrimidin-6-yl]-4-methyl-phenyl]urea]
